Results as given in patent US11590139B2, “Substituted aminopurine compounds, compositions thereof, and methods of treatment therewith” (Signal Pharmaceuticals, LLC, priority 2014, dated 2023).

System: Lox-IMVI melanoma cell line
Assay: Lox-IMVI anti-proliferative assay (growth inhibition, Cell Titer-Glo)
Format: cell-based, human
Settings: Homo sapiens; IC50 activity level in the cell-based Lox-IMVI anti-proliferative assay; read-out: Activity
Summary of the method: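 Lox-IMVI cells in RPMI+10% FBS exposed 72 h at 37 °C to 10-point, 3-fold dilutions (0.5 nM–10 μM; 0.2% DMSO final), in duplicate. Viability by Cell Titer-Glo luminescence, with a t0 cell-number reading; data as % of DMSO control; IC50 from a four-parameter logistic fit.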

SMILES	IC50 [nM]
NC(=O)[C@H]1CC[C@@H](n2c(Nc3c(F)cc(Cl)cc3F)nc3cnc(N[C@@H]4CCOC4)nc32)CC1 [Example 221, (1S,4s)-4-(8-(4-chloro-2,6-difluorophenylamino)-2-((R)-tetrahydrofuran-3-ylamino)-9H-purin-9-yl)cyclohexanecarboxamide]	500 to 1000
NC(=O)[C@H]1CC[C@@H](n2c(Nc3c(F)cc(Cl)cc3Cl)nc3cnc(N[C@@H]4CCOC4)nc32)CC1 [Example 223, (1S,4s)-4-(8-(2,4-dichloro-6-fluorophenylamino)-2-((R)-tetrahydrofuran-3-ylamino)-9H-purin-9-yl)cyclohexanecarboxamide]	250 to 500
NC(=O)[C@H]1CC[C@@H](n2c(Nc3c(F)cc(F)cc3Cl)nc3cnc(NC4CC(F)(F)C4)nc32)CC1 [Example 228, (1s,4s)-4-(8-(2-chloro-4,6-difluorophenylamino)-2-(3,3-difluorocyclobutylamino)-9H-purin-9-yl)cyclohexanecarboxamide]	500 to 1000
NC(=O)[C@H]1CC[C@@H](n2c(Nc3c(F)cc(Cl)cc3F)nc3cnc(NC4CC(F)(F)C4)nc32)CC1 [Example 229, (1s,4s)-4-(8-(4-chloro-2,6-difluorophenylamino)-2-(3,3-difluorocyclobutylamino)-9H-purin-9-yl)cyclohexanecarboxamide]	> 1000
NC(=O)[C@H]1CC[C@@H](n2c(Nc3c(F)cc(Cl)cc3Cl)nc3cnc(NC4CC(F)(F)C4)nc32)CC1 [Example 230, (1s,4s)-4-(8-(2,4-dichloro-6-fluorophenylamino)-2-(3,3-difluorocyclobutylamino)-9H-purin-9-yl)cyclohexanecarboxamide]	250 to 500
NC(=O)[C@H]1CC[C@@H](n2c(Nc3c(Cl)cc(F)cc3Cl)nc3cnc(NC4CC(F)(F)C4)nc32)CC1 [Example 231, (1s,4s)-4-(8-(2,6-dichloro-4-fluorophenylamino)-2-(3,3-difluorocyclobutylamino)-9H-purin-9-yl)cyclohexanecarboxamide]	> 1000
NC(=O)[C@H]1CC[C@@H](n2c(Nc3c(F)ccc(Cl)c3F)nc3cnc(NC4CC(F)(F)C4)nc32)CC1 [Example 234, (1s,4s)-4-(8-(3-chloro-2,6-difluorophenylamino)-2-(3,3-difluorocyclobutylamino)-9H-purin-9-yl)cyclohexanecarboxamide]	> 1000
NC(=O)[C@H]1CC[C@@H](n2c(Nc3c(F)cccc3Cl)nc3cnc(NC4CCC(F)(F)CC4)nc32)CC1 [Example 235, (1s,4s)-4-(8-(2-chloro-6-fluorophenylamino)-2-(4,4-difluorocyclohexylamino)-9H-purin-9-yl)cyclohexanecarboxamide]	500 to 1000
NC(=O)[C@H]1CC[C@@H](n2c(Nc3cc(F)c(Cl)cc3F)nc3cnc(NC4CCC(F)(F)CC4)nc32)CC1 [Example 238, (1s,4s)-4-(8-(4-chloro-2,5-difluorophenylamino)-2-(4,4-difluorocyclohexylamino)-9H-purin-9-yl)cyclohexanecarboxamide]	> 1000
NC(=O)[C@H]1CC[C@@H](n2c(Nc3c(F)ccc(F)c3F)nc3cnc(NC4CCC(F)(F)CC4)nc32)CC1 [Example 239, (1s,4s)-4-(2-(4,4-difluorocyclohexylamino)-8-(2,3,6-trifluorophenylamino)-9H-purin-9-yl)cyclohexanecarboxamide]	500 to 1000
NC(=O)[C@H]1CC[C@@H](n2c(Nc3ccc(Cl)cc3Cl)nc3cnc(NC4CCC(F)(F)CC4)nc32)CC1 [Example 240, (1s,4s)-4-(8-(2,4-dichlorophenylamino)-2-(4,4-difluorocyclohexylamino)-9H-purin-9-yl)cyclohexanecarboxamide]	> 1000
NC(=O)[C@H]1CC[C@@H](n2c(Nc3c(F)cc(Cl)cc3Cl)nc3cnc(N[C@H]4CCOC4)nc32)CC1 [Example 244, (1R,4s)-4-(8-(2,4-dichloro-6-fluorophenylamino)-2-((S)-tetrahydrofuran-3-ylamino)-9H-purin-9-yl)cyclohexanecarboxamide]	500 to 1000
NC(=O)[C@H]1CC[C@@H](n2c(Nc3c(Cl)cc(Cl)cc3Cl)nc3cnc(N[C@H]4CCOC[C@@H]4F)nc32)CC1 [Example 246, (1R,4s)-4-(2-((3R,4S)-3-fluorotetrahydro-2H-pyran-4-ylamino)-8-(2,4,6-trichlorophenylamino)-9H-purin-9-yl)cyclohexanecarboxamide]	500 to 1000
NC(=O)[C@H]1CC[C@@H](n2c(Nc3c(F)cc(F)cc3F)nc3cnc(N[C@@H]4CCC[C@H]4O)nc32)CC1 [Example 249, (1S,4s)-4-(2-((1R,2R)-2-hydroxycyclopentylamino)-8-(2,4,6-tnfluorophenylamino)-9H-purin-9-yl)cyclohexanecarboxamide]	> 1000

The remaining lines, values ahead:

IC50 [nM]	SMILES
> 1000	NC(=O)[C@H]1CC[C@@H](n2c(Nc3ccc(F)c(F)c3F)nc3cnc(N[C@@H]4CC[C@@H](O)C4)nc32)CC1 [Example 220, (1S,4s)-4-(2-((1R,3R)-3-hydroxycyclopentylamino)-8-(2,3,4-trifluorophenylamino)-9H-purin-9-yl)cyclohexanecarboxamide]
500 to 1000	NC(=O)[C@H]1CC[C@@H](n2c(Nc3c(Cl)cc(F)cc3Cl)nc3cnc(N[C@@H]4CCOC4)nc32)CC1 [Example 222, (1S,4s)-4-(8-(2,6-dichloro-4-fluorophenylamino)-2-((R)-tetrahydrofuran-3-ylamino)-9H-purin-9-yl)cyclohexanecarboxamide]
> 1000	NC(=O)[C@H]1CC[C@@H](n2c(Nc3c(Cl)cc(Cl)cc3Cl)nc3cnc(NC4CC(F)(F)C4)nc32)CC1 [Example 224, (1s,4s)-4-(2-(3,3-difluorocyclobutylamino)-8-(2,4,6-trichlorophenylamino)-9H-purin-9-yl)cyclohexanecarboxamide]
> 1000	NC(=O)[C@H]1CC[C@@H](n2c(Nc3c(F)cccc3Cl)nc3cnc(NC4CC(F)(F)C4)nc32)CC1 [Example 225, (1s,4s)-4-(8-(2-chloro-6-fluorophenylamino)-2-(3,3-difluorocyclobutylamino)-9H-purin-9-yl)cyclohexanecarboxamide]
> 1000	NC(=O)[C@H]1CC[C@@H](n2c(Nc3c(F)cc(F)cc3F)nc3cnc(NC4CC(F)(F)C4)nc32)CC1 [Example 226, (1s,4s)-4-(2-(3,3-difluorocyclobutylamino)-8-(2,4,6-trifluorophenylamino)-9H-purin-9-yl)cyclohexanecarboxamide]
> 1000	NC(=O)[C@H]1CC[C@@H](n2c(Nc3c(F)cccc3F)nc3cnc(NC4CC(F)(F)C4)nc32)CC1 [Example 227, (1s,4s)-4-(2-(3,3-difluorocyclobutylamino)-8-(2,6-difluorophenylamino)-9H-purin-9-yl)cyclohexanecarboxamide]
> 1000	NC(=O)[C@H]1CC[C@@H](n2c(Nc3ccc(Cl)c(F)c3F)nc3cnc(NC4CC(F)(F)C4)nc32)CC1 [Example 232, (1s,4s)-4-(8-(4-chloro-2,3-difluorophenylamino)-2-(3,3-difluorocyclobutylamino)-9H-purin-9-yl)cyclohexanecarboxamide]
500 to 1000	NC(=O)[C@H]1CC[C@@H](n2c(Nc3c(F)ccc(F)c3F)nc3cnc(NC4CC(F)(F)C4)nc32)CC1 [Example 233, (1s,4s)-4-(2-(3,3-difluorocyclobutylamino)-8-(2,3,6-trifluorophenylamino)-9H-purin-9-yl)cyclohexanecarboxamide]
250 to 500	NC(=O)[C@H]1CC[C@@H](n2c(Nc3c(Cl)cccc3Cl)nc3cnc(NC4CCC(F)(F)CC4)nc32)CC1 [Example 236, (1s,4s)-4-(8-(2,6-dichlorophenylamino)-2-(4,4-difluorocyclohexylamino)-9H-purin-9-yl)cyclohexanecarboxamide]
> 1000	NC(=O)[C@H]1CC[C@@H](n2c(Nc3cccc(Cl)c3F)nc3cnc(NC4CCC(F)(F)CC4)nc32)CC1 [Example 237, (1s,4s)-4-(8-(3-chloro-2-fluorophenylamino)-2-(4,4-difluorocyclohexylamino)-9H-purin-9-yl)cyclohexanecarboxamide]
> 1000	NC(=O)[C@H]1CC[C@@H](n2c(Nc3c(F)cc(F)cc3Cl)nc3cnc(N[C@H]4CCOC4)nc32)CC1 [Example 241, (1R,4s)-4-(8-(2-chloro-4,6-difluorophenylamino)-2-((S)-tetrahydrofuran-3-ylamino)-9H-purin-9-yl)cyclohexanecarboxamide]
500 to 1000	NC(=O)[C@H]1CC[C@@H](n2c(Nc3c(F)cc(Cl)cc3F)nc3cnc(N[C@H]4CCOC4)nc32)CC1 [Example 242, (1R,4s)-4-(8-(4-chloro-2,6-difluorophenylamino)-2-((S)-tetrahydrofuran-3-ylamino)-9H-purin-9-yl)cyclohexanecarboxamide]
500 to 1000	NC(=O)[C@H]1CC[C@@H](n2c(Nc3c(Cl)cc(F)cc3Cl)nc3cnc(N[C@H]4CCOC4)nc32)CC1 [Example 243, (1R,4s)-4-(8-(2,6-dichloro-4-fluorophenylamino)-2-((S)-tetrahydrofuran-3-ylamino)-9H-purin-9-yl)cyclohexanecarboxamide]
> 1000	NC(=O)[C@H]1CC[C@@H](n2c(Nc3c(F)cc(F)cc3Cl)nc3cnc(N[C@H]4CCCOC4)nc32)CC1 [Example 245, (1R,4s)-4-(8-(2-chloro-4,6-difluorophenylamino)-2-((S)-tetrahydro-2H-pyran-3-ylamino)-9H-purin-9-yl)cyclohexanecarboxamide]
> 1000	NC(=O)[C@H]1CC[C@@H](n2c(Nc3c(F)cccc3F)nc3cnc(N[C@H]4CCOC[C@@H]4F)nc32)CC1 [Example 247, (1R,4s)-4-(8-(2,6-difluorophenylamino)-2-((3R,4S)-3-fluorotetrahydro-2H-pyran-4-ylamino)-9H-purin-9-yl)cyclohexanecarboxamide]
500 to 1000	N#Cc1ccc(Nc2nc3cnc(NC4CCOCC4)nc3n2[C@H]2CC[C@@H](C(N)=O)CC2)c(Cl)c1 [Example 248, (1s,4s)-4-(8-(2-chloro-4-cyanophenylamino)-2-(tetrahydro-2H-pyran-4-ylamino)-9H-purin-9-yl)cyclohexanecarboxamide]
